Data as given in US10293020B2, “Peptide therapeutics and methods for using same” (Stealth BioTherapeutics Corp, priority 2013, dated 2019).
Non-standard residues stand in square brackets, D forms with d. No end group written: not given here. Cha = N[C@@H](CC1CCCCC1)C(=O)O

How the values were obtained:
[1] = Variable temperature static 31P NMR of membrane integrity; format: physicochemical; conditions: P:L=1:12.5, 280 K-360 K
Source text: (§1) Large unilamellar vesicles (LUVs) with a transmembrane gradient of about −180 mV are constructed, composed of a mixture of cardiolipin (CL, 10% mol), phosphatidylcholine (PC, 50% mol), and phosphatidylethanolamine (PE, 40% mol). An electrochemical gradient is incorporated because the transloation of MPPs is known to be highly dependent on electrochemical potential. Spectra from three different peptide-lipid systems are compared: Mn^2+ free, Mn^2+ bound to one side of the vesicle, and Mn^2+ bound to both the inside and outside of the vesicle.
(§2) The spinning rate for all MAS experiments is 5 kHz, performed at 310 K. ^13C direct polarization (DP) MAS NMR spectra is decoupled with two pulse phase modulation (TPPM) at ^1H field strengths of 30 kHz. Typical radiofrequency (rf) pulse lengths are ˜5 μs for ^13C and ˜2 μs for ^1H. Static ^31P spectra are decoupled with WALTZ-16 at ^1H field strengths of 6 kHz. Typical rf pulse lengths are ˜4 μs for ^31P.
Static ^31P chemical shift anisotropy NMR measurements are conducted at variable temperatures (280 K-360 K) to determine if any changes in membrane morphology or lipid transition temperatures occurr upon peptide binding. The ^31P NMR spectra of the model mitochondria membranes alone are recorded to provide a comparison to the peptide-bound membranes. […]

[2] = 13C MAS PRE solid-state NMR of peptide in Mn2+-bound vesicles; format: physicochemical
Source text: as §1
A pH difference is used to establish a transmembrane gradient. The membrane encapsulates 300 mM pH 4 phosphate buffer inside the vesicle and 10 mM pH 7 phosphate buffer outside to establish an electrochemical potential of −177 mV, which is reflective of the biologically encountered mitochondrial gradient of −180 mV. The existence of a three unit pH gradient is confirmed by the fluorescence response of 9-aminoacridine as previously described.
Hydrated CL/PC/PE membranes are formed by dissolving the lipids in a 95:5 benzene:ethanol mixture at an appropriate molar ratio of 0.1/0.5/0.4, respectively. The lipid mixture is lyophilized overnight. The dried lipid cake is rehydrated with 300 mM phosphate buffer at pH 4 which is heated to 85° C. The rehydrated lipid sample is incubated for 2 hours at 85° C. and vortexed periodically to produce multilamellar vesicles (MLVs). The resulting MLVs are down-sized using a mini extruder (Avanti Polar Lipids, Inc.) and passed through a 100 nm polycarbonate membrane 21 times to produce LUVs of uniform diameter of 100 nm. The size of the vesicles is confirmed by dynamic light scattering on a ZetaPALS particle size analyzer. The LUVs are dialyzed for at least 8 hours using a Slide-A-Lyzer (Thermo Fisher Scientific) to remove the low pH, high salt buffer and replace it with 10 mM phosphate buffer at pH 7 for the exterior membrane environment.
After dialysis, the MPP is added at the appropriate molar ratio (P:L=1:10 or P:L=1:40) to the LUVs and incubated overnight. The MPP-lipid mixture is centrifuged at 160 000 g for 1.5 hours to yield a hydrated pellet, which is packed into a 200 μL MAS rotor. For the Mn^2+ containing samples, the Mn^2+ solution is prepared from MnCl2.4H2O and added at 8 mol % of the lipids. To obtain one side Mn^2+ bound vesicles, the Mn^2+ solution is either added after ultracentrifugation or during extrusion, producing outside-bound and inside-bound one side Mn^2+ bound samples. For two side Mn^2+ bound vesicles, the vesicles are extruded with the appropriate percentage of Mn^2+ and had Mn^2+ added after dialysis to replace the ions lost during this process.
as §2
To assess the remaining two mechanisms of translocation (electroporation and guanidinium-phosphate complexation), a ^13C MAS NMR PRE method at 310 K is used. In order to assure asymmetric distribution of Mn^2+ paramagnetic ions with the new model inner mitochondrial membranes, the ion position is monitoted with the ^31P NMR signal of the lipid heagroups. Without paramagnetic ions present, the entire signal is measured from all the phospholipid headgroups. The addition of Mn^2+ to the outside of the vesicles is expected to cause signal attenuation of about half the lipids, corresponding to dephasing of the outer leaflet. When the paramagnetic ions are on both sides of the bilayer, the entire ^31P signal is expected to be killed because all lipid headgroups will be in close proximity to Mn^2+. […]

effect on bilayer integrity [1]: does not alter the bilayer integrity | insertion depth in the bilayer ([2]; P:L=1:10): inserted into both leaflets at C2 | insertion depth in the bilayer ([2]; P:L=1:40): inserted at approximately C1-C2 | leaflet distribution of the peptide ([2]; low peptide concentration, P:L=1:40): binds only to the outer leaflet | peptide 13C peak signal intensity retained vs unbound sample ([2]; one side Mn2+ bound, P:L=1:10): ~75% | peptide 13C peak signal retention ([2]; two side Mn2+ bound, P:L=1:10): about 50%
Substance: [Cha]R[Cha]K-NH2 [MPP]
leaflet distribution of the peptide ([2]; high peptide concentration, P:L=1:10): distributed in both the inner and outer leaflet
